Results as given in US9066947B2, “Indolyl-substituted pyrazino[1,2-b]isoquinolines for cancer treatment” (Everest Biosciences, Inc., priority 2009, dated 2015).

How the values were obtained:
[1] = test system: PC-3 prostate cancer cells; experiment: Cell proliferation assay (trypan blue viable cell count) and IC50 determination; format: cell-based, human; conditions: PC-3 cells; for IC50: Homo sapiens, viable cells after 48 hours, read-out: IC50 for cell growth inhibition; for concentration from which statistically significant cell growth inhibition started: 48 hours
Description: All new synthesized compounds and Etoposide were first dissolved in 100% DMSO at initial concentration of 100 mM, and then diluted at final concentration of 200 uM in culture medium. Commercial form of Avastin (25 mg/ml) was diluted to appropriate concentrations in culture medium.
(§1) Hormone-independent and metastatic PC-3 prostate cancer cells were purchased from the American Type Culture Collection (Manassas, Va., USA) and cultured in RPMI-1640 supplemented with 10% fetal bovine serum. Etoposide was purchased from Sigma, Avastin from Roche.
For cell counting a total of 6×10^4 cells at a density of 0.3×10^6/ml were seeded in 96-well plate. The cells were treated with compounds, Etoposide or Avastin as positive controls at 1 uM, 5 uM, 10 uM, 20 uM, 50 uM, 100 uM for 48 hours. For Avastin 5 uM, 20 uM and 50 uM concentrations were used. The cells were labeled with trypan blue and the viable cells were quantified.

[2] = test system: PC-3 prostate cancer cells; experiment: Annexin V-apoptosis assay; format: cell-based, human; conditions: 48 hours; for apoptotic cell number versus control and Etoposide: 50 uM and 100 uM
Description: as §1
Cells were treated with 50 uM and 100 uM compounds and Etoposide for 48 hours, harvested, washed with PBS and resuspended in binding buffer (0.01 M HEPES pH 7.4, 0.14 M NaCl, […] CaCl2) (BD Bioscience, san Jose, Calif., USA), stained with […] annexin V and 7-AAD (BD Bioscience). The cells were incubated for 15 min at room temperature in the dark, and the rate of apoptosis was measured by flow cytometry (Calibur, BD) and analyzed using FCS Express Professional software (De NoVo software, CA, USA).

[3] = test system: PC-3 prostate cancer cells; experiment: Cell cycle analysis; format: cell-based, human; conditions: for G2/M phase blockage: 50 uM and 100 uM, analogue 3 statement at 100 uM
Description: as §1
Cells were harvested after the treatment, then fixed in ice-cold 70% EtOH. Cells then were washed with PBS and incubated in DNA staining buffer, containing 1 mg/ml sodium citrate (Sigma), 0.1 mg/ml propidium iodide (Sigma), 3 ul/ml TritonX-100, 0.02 mg/ml RNaseA (Sigma) for 30 min at 4° C. The cell cycle profiles were measured in a FACS Calibur cytofluorometer (BD) and analyzed using FCS Express Professional (De NoVo software, CA, USA) and Multicycle (Phoenix Flow Systems, Inc., CA, USA) softwares.

PC-3 tumors = experiment: PC-3 prostate cancer xenograft mouse model of tumor growth and metastasis; format: in vivo, athymic NMRI nude mice; conditions: tumors about 250 mm3, IV once every other day for 14 days; Etoposide 20 mg/kg, Substance X 40 mg/kg (FIG. 4)
Description: Athymic NMRI nude mice between 6-8 weeks old (Taconic; Bomholt, Denmark) were used. Prostate cancer xenograft mouse model was created by implanting hormone-independent PC3 tumor cells subcutaneously into athymic nude mice as previously described (Wegiel B, Bjartell A, Tuomela J, et al.: Multiple cellular mechanisms related to cyclin Al in prostate cancer invasion and metastasis. Journal of the National Cancer Institute 100: 10221036, 2008).
PC-3 cells were purchased from American Type Culture Collection (Manassas, V A) and cultured in RPMI-1640 supplemented with 10% Fetal Bovine Serum. PC-3 cells at 1×10^6/per mouse were used. The mice were divided into three groups (6 mice per group). The first group allowed tumors to grow between 170-400 mm^3 in size before starting the treatment. The second group allowed tumors to grow between 550-650 mm^3 in size before starting the treatment. The third group allowed tumors to grow between 700-800 mm^3 in size before starting the treatment. The tumor diameters were measured twice weekly using calipers. The tumor volumes were calculated using an equation of a*(b2/2) where a and b represent the length and width of the tumor, respectively.
The treatment of the compound of Example 1 (also referred to herein as “Substance X”) or PBS containing 5% DMSO (vehicle) as Control was started when tumors reached the desired size as described above. In the first experimental setting, Substance X was administered intravenously once every other day. In the second experimental setting, Substance X was administrated orally once every other day. Tumor growth was assessed periodically as described in Results. The mice were sacrificed after treatment by euthanization via isofluorene inhalation. Lymph node, liver, lung, spleen and femurs were removed from each mouse. Half of the tumor tissues were used for histology and immunohistochemical analysis. For histology analysis, tissues were fixed in 4% paraformaldehyde and embedded in paraffin. The sections were stained with hematoxylineosin (H&E) or imunohistochemical stained with antibodies and analyzed under an optical microscope. The other half of the tissues were used for protein analysis and thus were snapfrozen in liquid nitrogen. The body weights of the mice on the first and last day of the treatment were collected and compared. Tumor invasion and metastasis were examined in various tissues from the sacrificed mice.
For a comparison study, mice with tumors at 190-250 mm^3 in size were treated with the cytotoxic drug Etoposide (Sigma) at a dose of 20 mg/kg via IV injection once every other day. The tumor size was measured as described in the Results. Three mice were treated with Etoposide or the vehicle as Control. The mice were sacrificed and the tissues were collected as described above.

| Compound | IC50 [1] [µM] | concentration from which statistically significant cell growth inhibition started [1] [µM] | apoptotic cell number versus control and Etoposide [2] | Early apoptosis, % ([2]; 50 uM) [%] | Late apoptosis/necrosis, % ([2]; 50 uM) [%] | Total, % (apoptosis) ([2]; 50 uM) [%] | Early apoptosis, % ([2]; 100 uM) [%] | Late apoptosis/necrosis, % ([2]; 100 uM) [%] | Total, % (apoptosis) ([2]; 100 uM) [%] | G0/G1, % ([3]; 50 uM) [%] | S + G2 + M, % ([3]; 50 uM) [%] | G0/G1, % ([3]; 100 uM) [%] | S + G2 + M, % ([3]; 100 uM) [%] | G2/M phase blockage [3] | effect on PC-3 cell number ([1]; 48 hours (FIG. 12)) | tumor growth, comparison of Etoposide and Substance X (PC-3 tumors) |
| --- | --- | --- | --- | --- | --- | --- | --- | --- | --- | --- | --- | --- | --- | --- | --- | --- |
| CN1CC(=O)N2[C@H](c3c[nH]c4c3ccc3ccccc34)c3cc4c(cc3C[C@H]2C1=O)OCO4 [Analogue 3, (2S,8S)-6-methyl-2-{1H-naphtho[1,2-b]pyrrol-3-yl}-13,15-dioxa-3,6-diazatetracyclo[8.7.0.0^3,8.0^12,16]heptadeca-1(10),11,16-triene-4,7-dione] | 32 | 5 | increasing in both early and late apoptotic cell number | 15.21 | 6.55 | 21.76 | 17.51 | 5.52 | 23.03 | 67.52 | 32.48 | 51.77 | 48.23 | – | – | – |
| CN1CC(=O)N2[C@H](c3cn(C)c4ccccc34)c3cc4c(cc3C[C@H]2C1=O)OCO4 [Analogue 4, (2S,8S)-6-methyl-2-(1-methyl-1H-indol-3-yl)-13,15-dioxa-3,6-diazatetracyclo-[8.7.0.0^3,8.0^12,16]heptadeca-1(10),11,16-triene-4,7-dione] | 30 | 10 | – | – | – | – | – | – | – | – | – | – | – | – | – | – |
| CN1CC(=O)N2[C@H](c3c[nH]c4ccc(Cl)cc34)c3cc4c(cc3C[C@H]2C1=O)OCO4 [Analogue 1, (2S,8S)-2-(5-chloro-1H-indol-3-yl)-6-methyl-13,15-dioxa-3,6-diazatetracyclo-[8.7.0.0^3,8.0^12,16]heptadeca-1(10),11,16-triene-4,7-dione] | 36 | – | increasing in both early and late apoptotic cell number | 10.98 | 4.23 | 15.21 | 16.83 | 8.29 | 25.12 | 63.26 | 36.74 | 60.44 | 39.56 | not | – | – |
| CN1CC(=O)N2[C@H](c3cn(Cc4ccccc4)c4ccccc34)c3cc4c(cc3C[C@H]2C1=O)OCO4 [Analogue 5, (2S,8S)-2-(1-benzyl-1H-indol-3-yl)-6-methyl-13,15-dioxa-3,6-diazatetracyclo-[8.7.0.0^3,8.0^12,16]heptadeca-1(10),11,16-triene-4,7-dione] | – | – | – | – | – | – | – | – | – | – | – | – | – | – | resulted in cell reduction | – |
| COc1ccc2[nH]cc([C@@H]3c4cc5c(cc4C[C@H]4C(=O)N(C)CC(=O)N34)OCO5)c2c1 [Analogue 2, (2S,8S)-2-(5-methoxy-1H-indol-3-yl)-6-methyl-13,15-dioxa-3,6-diazatetracyclo[8.7.0.0^3,8.0^12,16]heptadeca-1(10),11,16-triene-4,7-dione] | 60 | 5 | – | – | – | – | – | – | – | – | – | – | – | – | – | – |
| COc1cc([C@@H]2c3cc4c(cc3[C@@H](O[C@@H]3O[C@@H]5CO[C@@H](C)O[C@H]5[C@H](O)[C@H]3O)[C@H]3COC(=O)[C@H]23)OCO4)cc(OC)c1O [Etoposide, reference compound] | – | – | – | 9.22 | 6.73 | 15.95 | 9.35 | 4.98 | 14.33 | 15.91 | 84.09 | 21.39 | 78.61 | G2/M phase blockage | – | grew slowly |
